According to patent publication US20240277852A1, “INHIBITORS AND DEGRADERS OF PIP4K PROTEIN” (DANA-FARBER CANCER INSTITUTE, INC., priority 2021, published 2024):

What was measured:
PIP4K2A = PIP4K2A (Homo sapiens (Human), UniProt P48426); test: PIP4K2A inhibitory activity (Table 1); assay type: biochemical
PIP4K2B = PIP4K2B (Homo sapiens (Human), UniProt P78356); test: KINOMEscan PIP5K2B (also known as PIP4K2B) Assay (Eurofins Discovery); assay type: binding
Procedure: (§1) The inhibitory activity of the compounds were evaluated using KINOMEscan® PIP5K2B (also known as PIP4K2B) and KINOMEscan® PIP5K2C (also known as PIP4k2C) Assays (Eurofins Discovery) following the manufacturer's standards.

PIP4K2C = PIP4K2C (Homo sapiens (Human), UniProt Q8TBX8); test: KINOMEscan PIP5K2C (also known as PIP4K2C) Assay (Eurofins Discovery); assay type: binding
Chain of PIP4K2C (Q8TBX8 whole entry): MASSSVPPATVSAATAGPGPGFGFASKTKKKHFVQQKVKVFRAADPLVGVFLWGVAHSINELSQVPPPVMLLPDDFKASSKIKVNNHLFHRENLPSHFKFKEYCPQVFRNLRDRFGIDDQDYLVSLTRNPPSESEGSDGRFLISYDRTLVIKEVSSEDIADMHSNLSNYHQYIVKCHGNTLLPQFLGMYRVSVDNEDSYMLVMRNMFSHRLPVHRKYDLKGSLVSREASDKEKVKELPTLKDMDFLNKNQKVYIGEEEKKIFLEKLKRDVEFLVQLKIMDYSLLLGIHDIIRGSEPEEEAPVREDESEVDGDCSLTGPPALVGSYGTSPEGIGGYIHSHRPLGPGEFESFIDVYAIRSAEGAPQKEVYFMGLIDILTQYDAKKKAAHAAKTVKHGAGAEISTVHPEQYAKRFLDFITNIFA
Procedure: as §1

Chain of PIP4K2B (P78356 whole entry): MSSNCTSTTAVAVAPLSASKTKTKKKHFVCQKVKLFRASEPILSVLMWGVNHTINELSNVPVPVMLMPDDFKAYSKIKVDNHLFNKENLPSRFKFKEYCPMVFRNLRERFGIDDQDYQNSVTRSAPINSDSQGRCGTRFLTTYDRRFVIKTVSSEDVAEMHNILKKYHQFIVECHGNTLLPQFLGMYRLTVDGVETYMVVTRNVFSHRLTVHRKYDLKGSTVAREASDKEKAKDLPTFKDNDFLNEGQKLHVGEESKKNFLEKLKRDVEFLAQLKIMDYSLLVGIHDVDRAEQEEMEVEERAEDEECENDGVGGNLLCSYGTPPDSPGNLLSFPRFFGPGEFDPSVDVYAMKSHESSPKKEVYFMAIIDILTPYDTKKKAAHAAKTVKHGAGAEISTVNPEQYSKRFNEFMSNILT
Chain of PIP4K2A (P48426 whole entry, species assumed): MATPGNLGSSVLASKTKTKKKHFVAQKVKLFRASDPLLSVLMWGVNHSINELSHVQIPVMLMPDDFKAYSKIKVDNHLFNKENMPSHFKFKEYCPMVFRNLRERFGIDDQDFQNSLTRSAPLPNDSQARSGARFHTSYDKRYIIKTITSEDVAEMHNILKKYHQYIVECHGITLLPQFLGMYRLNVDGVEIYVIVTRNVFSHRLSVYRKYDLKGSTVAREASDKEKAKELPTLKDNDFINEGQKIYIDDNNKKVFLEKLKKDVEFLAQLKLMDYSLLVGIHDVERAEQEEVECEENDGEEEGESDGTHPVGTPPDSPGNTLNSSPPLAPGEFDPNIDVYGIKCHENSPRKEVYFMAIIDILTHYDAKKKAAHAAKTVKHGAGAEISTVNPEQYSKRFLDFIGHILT

Cc1cc(S(N)(=O)=O)ccc1Nc1ncc(Cl)c(-c2cccc(-c3ccccc3)c2)n1 [Compound 1]
IC50 (PIP4K2A): > 10000 nM | Kd (PIP4K2B): > 10000 nM | Kd (PIP4K2C): 36 nM

CC(=O)N(CC#N)S(=O)(=O)c1ccc(Nc2ncc(Cl)c(-c3cccc(-c4ccccc4)c3)n2)c(C)c1 [Compound 2]
IC50 (PIP4K2A): > 10000 nM | Kd (PIP4K2B): > 10000 nM | Kd (PIP4K2C): 56 nM

CC(=O)N(C)S(=O)(=O)c1ccc(Nc2ncc(Cl)c(-c3cccc(-c4ccccc4)c3)n2)c(C)c1 [Compound 3, N-((4-((4-([1,1′-biphenyl]-3-yl)-5-chloropyrimidin-2-yl)amino)-3-methylphenyl)sulfonyl)-N-methylacetamide]
IC50 (PIP4K2A): 8760 nM | Kd (PIP4K2B): > 10000 nM | Kd (PIP4K2C): 29 nM

NS(=O)(=O)c1ccc(Nc2ncc(Cl)c(-c3cccc(-c4ccccc4)c3)n2)cc1 [Compound 4]
IC50 (PIP4K2A): > 10000 nM | Kd (PIP4K2B): > 10000 nM | Kd (PIP4K2C): 64 nM

Cc1cc(C(N)=O)ccc1Nc1ncc(Cl)c(-c2cccc(-c3ccccc3)c2)n1 [Compound 5, 4-((4-([1,1′-biphenyl]-3-yl)-5-chloropyrimidin-2-yl)amino)-3-methylbenzamide]
Kd (PIP4K2C): 46 nM

Cc1cc(NS(C)(=O)=O)ccc1Nc1ncc(Cl)c(-c2cccc(-c3ccccc3)c2)n1 [Compound 6, N-(4-((4-([1,1′-biphenyl]-3-yl)-5-chloropyrimidin-2-yl)amino)-3-methylphenyl)methanesulfonamide]
Kd (PIP4K2C): 43 nM

Cc1ccc(NS(C)(=O)=O)cc1Nc1ncc(Cl)c(-c2cccc(-c3ccccc3)c2)n1 [Compound 7, N-(3-((4-([1,1′-biphenyl]-3-yl)-5-chloropyrimidin-2-yl)amino)-4-methylphenyl)methanesulfonamide]
Kd (PIP4K2C): 150 nM

CC(=O)Nc1ccc(Nc2ncc(Cl)c(-c3cccc(-c4ccccc4)c3)n2)c(C)c1 [Compound 8, N-(4-((4-([1,1′-biphenyl]-3-yl)-5-chloropyrimidin-2-yl)amino)-3-methylphenyl)acetamide]
Kd (PIP4K2C): 270 nM

CC(=O)Nc1ccc(C)c(Nc2ncc(Cl)c(-c3cccc(-c4ccccc4)c3)n2)c1 [Compound 9, N-(3-((4-([1,1′-biphenyl]-3-yl)-5-chloropyrimidin-2-yl)amino)-4-methylphenyl)acetamide]
Kd (PIP4K2B): > 10000 nM | Kd (PIP4K2C): 1400 nM

Cc1ccc(C(N)=O)cc1Nc1ncc(Cl)c(-c2cccc(-c3ccccc3)c2)n1 [Compound 10, 3-((4-([1,1′-biphenyl]-3-yl)-5-chloropyrimidin-2-yl)amino)-4-methylbenzamide]
Kd (PIP4K2C): 65 nM

CC(=O)Nc1cncc(Nc2ncc(Cl)c(-c3cccc(-c4ccccc4)c3)n2)c1 [Compound 11, N-(5-((4-([1,1′-biphenyl]-3-yl)-5-chloropyrimidin-2-yl)amino)pyridin-3-yl)acetamide]
Kd (PIP4K2B): > 10000 nM | Kd (PIP4K2C): 7.2 nM

O=C(Nc1cccc(Nc2ncc(Cl)c(-c3cccc(-c4ccccc4)c3)n2)c1)c1ccccc1 [Compound 12, N-(3-((4-([1,1′-biphenyl]-3-yl)-5-chloropyrimidin-2-yl)amino)phenyl)benzamide]
Kd (PIP4K2B): > 10000 nM | Kd (PIP4K2C): 140 nM

O=C(Nc1cncc(Nc2ncc(Cl)c(-c3cccc(-c4ccccc4)c3)n2)c1)c1ccccc1 [Compound 13, N-(5-((4-([1,1′-biphenyl]-3-yl)-5-chloropyrimidin-2-yl)amino)pyridin-3-yl)benzamide]
Kd (PIP4K2B): > 10000 nM | Kd (PIP4K2C): 21 nM

O=C(Nc1cncc(Nc2ncc(Cl)c(-c3cccc(-c4cccnc4)c3)n2)c1)c1ccccc1 [Compound 14]
Kd (PIP4K2B): > 10000 nM | Kd (PIP4K2C): 38 nM

O=C1CC[C@H]2COc3ncc(Nc4ncc(Cl)c(-c5cccc(-c6ccccc6)c5)n4)cc3N12 [Compound 15, (S)-2-((4-([1,1′-biphenyl]-3-yl)-5-chloropyrimidin-2-yl)amino)-6,6a,7,8-tetrahydro-9H-pyrido[2,3-b]pyrrolo[1,2-d][1,4]oxazin-9-one]
Kd (PIP4K2B): > 10000 nM | Kd (PIP4K2C): 0.45 nM

O=C(COc1cccc2c1C(=O)N(C1CCC(=O)NC1=O)C2=O)NCCOCCOCCNS(=O)(=O)c1ccc(Nc2ncc(Cl)c(-c3cccc(-c4ccccc4)c3)n2)cc1 (centres unmarked) [Compound 36, N-(2-(2-(2-((4-((4-([1,1′-biphenyl]-3-yl)-5-chloro-1|4-pyrimidin-2-yl)amino)phenyl)sulfonamido)ethoxy)ethoxy)ethyl)-2-((2-(2,6-dioxopiperidin-3-yl)-1,3-dioxoisoindolin-4-yl)oxy)acetamide]
Kd (PIP4K2C): 460 nM

CC(=O)N[C@H](C(=O)N1C[C@H](O)C[C@H]1C(=O)N[C@@H](C)c1ccc(-c2scnc2C)cc1OCCCCCNC(=O)CCC(=O)Nc1cncc(Nc2ncc(Cl)c(-c3cccc(-c4ccccc4)c3)n2)c1)C(C)(C)C [Compound 53, N1-(5-((4-([1,1′-biphenyl]-3-yl)-5-chloropyrimidin-2-yl)amino)pyridin-3-yl)-N4-(5-(2-((S)-1-((2S,4R)-1-((S)-2-acetamido-3,3-dimethylbutanoyl)-4-hydroxypyrrolidine-2-carboxamido)ethyl)-5-(4-methylthiazol-5-yl)phenoxy)pentyl)succinimide]
Kd (PIP4K2C): 110 nM

Cc1ncsc1-c1ccc(CNC(=O)[C@@H]2C[C@@H](O)CN2C(=O)[C@@H](NC(=O)C2(F)CC2)C(C)(C)C)c(OCCCCCCC(=O)N2CCC3(CC2)CCN(c2cncc(Nc4ncc(Cl)c(-c5cccc(-c6ccccc6)c5)n4)c2)C3=O)c1 [Compound 56, (2S,4R)—N-(2-((7-(2-(5-((4-([1,1′-biphenyl]-3-yl)-5-chloropyrimidin-2-yl)amino)pyridin-3-yl)-1-oxo-2,8-diazaspiro[4,5]decan-8-yl)-7-oxoheptyl)oxy)-4-(4-methylthiazol-5-yl)benzyl)-1-((S)-2(1-fluorocyclopropane-1-carboxamido)-3,3-dimethylbutanoyl)-4-hydroxypyrrolidine-2-carboxamide]
Kd (PIP4K2B): > 10000 nM | Kd (PIP4K2C): 620 nM

Cc1ncsc1-c1ccc([C@H](C)NC(=O)[C@@H]2C[C@@H](O)CN2C(=O)[C@@H](NC(=O)CCCCCC(=O)N2CCC3(CC2)CCN(c2cncc(Nc4ncc(Cl)c(-c5cccc(-c6ccccc6)c5)n4)c2)C3=O)C(C)(C)C)cc1 [Compound 57]
Kd (PIP4K2B): > 10000 nM | Kd (PIP4K2C): 42 nM
